Patent US20030105144A1, “Stabilized oral pharmaceutical composition” (priority 2001, published 2003)

Assay: Solubility of celecoxib in PEG-400/water
Assay type: physicochemical
Conditions: 2:1 mixture of PEG-400 and water
Experimental: Water-miscible, nonvolatile liquids such as polyethylene glycols have been successfully used in encapsulated solution formulations. Moreover, polyethylene glycols are also good solvents for drugs of low water solubility because they are known to improve aqueous drug solubility. For example, celecoxib, which has very low solubility in water, is highly soluble (>300 mg/g) in a 2:1 mixture of PEG-400 and water.

In the case of `Cc1ccc(-c2cc(C(F)(F)F)nn2-c2ccc(S(N)(=O)=O)cc2)cc1` [celecoxib, 4-[5-(4-methylphenyl)-3-(trifluoromethyl)-1H-pyrazol-1-yl]benzenesulfonamide], the solubility is reported as greater than 300 mg/g.
